In brackets after ≈: the same amount, converted by molar mass. Where two headings read alike, the source gives them in different places.
Assays:
[1] = test system: P. mirabilis IFO 3849; test: In-vitro antibacterial activity test, minimum growth inhibitory concentration (MIC), P. mirabilis; assay type: cell-based; conditions: Proteus mirabilis
[2] = In-vivo absorption test, serum concentration after oral administration (bioassay); parameters: species or system Wistar type rat (male); conditions: 50 mg/kg, fasted male Wistar rat, bioassay with Bacirus cereus S1101, read-out: Blood concentration / Serum concentration; for concentration at 1 h: 1 hr after oral administration; for concentration at 2 h: 2 hr after oral administration; for concentration at 4 h: 4 hr after oral administration
[3] = test system: S. aureus 209 P-JC; test: In-vitro antibacterial activity test, minimum growth inhibitory concentration (MIC), S. aureus; assay type: cell-based; conditions: Staphylococcus aureus, 209PJC, read-out: Minimum growth inhibitory concentration
[4] = IFO3849, P. mirabilis IFO 3849, read-out: Minimum growth inhibitory concentration

Row | SMILES | concentration at 1 h [2] | concentration at 2 h [2] | concentration at 4 h [2] | MIC ([1]; IFO3849, read-out: Minimum growth inhibitory concentration) | MIC [3] | MIC [1, 4] | MIC ([3]; S. aureus 209 P-JC)
1 | Nc1nc(/C(=N/O)C(=O)NC2C(=O)N3C(C(=O)[O-])=C(/C=C\c4csnn4)CS[C@H]23)cs1.[Na+] (stereo partly shown) | 4800 ng/mL | 6000 ng/mL | 6000 ng/mL | 0.1 µg/mL | ≤ 0.025 µg/mL |  | 
2 | C=CC1=C(C(=O)O)N2C(=O)C(NC(=O)/C(=N\OCC(=O)O)c3csc(N)n3)C2SC1 (stereo not shown) [A, reference compound] |  |  |  |  |  | ≤ 0.025 µg/mL | 12.5 µg/mL (≈ 27.6 µM)
3 | Cc1nnsc1/C=C\C1=C(C(=O)[O-])N2C(=O)C(NC(=O)/C(=N\O)c3csc(N)n3)[C@H]2SC1.[Na+] (stereo partly shown) [Example 14, sodium 7-[(Z)-2-(2-aminothiazol-4-yl)-2-hydroxyiminoacetamido]-3-[(Z)-2-(4-methyl-1,2,3-thiadiazol-5-yl)vinyl]-3-cephem-4-carboxylate] |  |  |  |  |  | 0.39 µg/mL | 0.1 µg/mL
4 | Cc1snnc1/C=C\C1=C(C(=O)[O-])N2C(=O)C(NC(=O)/C(=N\O)c3csc(N)n3)[C@H]2SC1.[Na+] (stereo partly shown) [Example 18, sodium 7-[(Z)-2-(2-aminothiazol-4-yl)-2-hydroxyiminoacetamido]-3-[(Z)-2-(5-methyl-1,2,3-thiadiazol-4-yl)vinyl]-3-cephem-4-carboxylate] |  |  |  |  |  | 0.39 µg/mL | 0.2 µg/mL
5 | CC(C)(C)C(=O)OCOC(=O)C1=C(/C=C\c2csnn2)CS[C@@H]2C(NC(=O)/C(=N\O)c3csc(N)n3)C(=O)N12 (stereo partly shown) [Example 19, pivalyloxymethyl 7-[(Z)-(2-aminothiazol-4-yl)-2-hydroxyiminoacetamido]-3-[(Z)-2-(1,2,3-thiadiazol-4-yl)vinyl]-3-cephem-4-carboxylate] | 11300 ng/mL | 9800 ng/mL | 5800 ng/mL |  |  |  | 
6 | Nc1nc(/C(=N/O)C(=O)NC2C(=O)N3C(C(=O)O)=C(/C=C\c4cnns4)CSC23)cs1 (stereo not shown) [Example 21] |  |  |  |  |  | 0.39 µg/mL (≈ 0.813 µM) | 0.2 µg/mL (≈ 0.417 µM)

Second part, led by results:

Row | concentration at 1 h [2] | concentration at 2 h [2] | concentration at 4 h [2] | SMILES | MIC ([1]; IFO3849, read-out: Minimum growth inhibitory concentration) | MIC [3] | MIC [1, 4] | MIC ([3]; S. aureus 209 P-JC)
7 | 26600 ng/mL | 37800 ng/mL | 26700 ng/mL | CCOC(=O)OC(C)OC(=O)C1=C(/C=C\c2csnn2)CSC2C(NC(=O)/C(=N\O)c3csc(N)n3)C(=O)N12 (racemic) [Example 22, DL-1-ethoxycarbonyloxyethyl 7-[(Z)-(2-aminothiazol-4-yl)-2-hydroxyiminoacetamido]-3-[(Z)-2-(1,2,3-thiadiazol-4-yl)vinyl]-3-cephem-4-carboxylate] |  |  |  | 
8 | 72100 ng/mL | 56600 ng/mL | 33400 ng/mL | CC(=O)OC(C)OC(=O)C1=C(/C=C\c2csnn2)CSC2C(NC(=O)/C(=N\O)c3csc(N)n3)C(=O)N12 (racemic) [Example 23, DL-1-acetyloxyethyl 7-[(Z)-2-(2-aminothiazol-4-yl)-2-hydroxyiminoacetamido]-3-[(Z)-2-(1,2,3-thiadiazol-4-yl)vinyl]-3-cephem-4-carboxylate] |  |  |  | 
